Assay: Phase 1 multiple ascending dose study of grapiprant tablets: serum pharmacokinetics
Format: in vivo, human
Conditions: for Rac (Day 14/Day 1) / half-life / Cmax / AUC(0-t): mean; for increase of mean systemic exposure (AUC and Cmax) with dose: 14 days; for half-life / Cmax / AUC(0-t) / Tmax: human, oral, serum; for Tmax: median
Source text: Serum pharmacokinetic parameters can be computed using WinNonlin Version 3.2 (Pharsight®, Mountain View, Calif.) using standard non-compartmental methods. As used herein, the term “Cmax” refers to the maximum observed serum concentration of grapiprant estimated directly from concentration versus time data. As used herein, the term “Tmax” refers to the time of the first occurrence of Cmax. As used herein, the term “AUC(0-tlast)” refers to the area under the serum concentration vs. time curve from time 0 to Tlast (the time of the last quantifiable concentration estimated using the linear/log trapezoidal approximation). When data permitted, the terminal elimination rate constant (kel) was estimated using linear least-square regression analysis of the serum concentration-time data obtained during the terminal log-linear phase. As used herein, the term “AUC(0-inf)” refers to AUC(0-tlast) extrapolated to infinity, which is calculated as the sum of AUC(0-tlast) and Cest/kel, wherein Cest is the predicted plasma concentration obtained from the log linear regression analysis at the last quantifiable time point. As used herein, the term “t½” refers to terminal phase half-life calculated as ln(2)/kel. As used herein, the term “AUC(last-inf)” refers to the area under the serum concentration versus time curve from Tlast to infinity, which is estimated as Cpest/kel, wherein Cpest represented the estimated concentration at time Tlast based on the aforementioned regression analysis. As used herein, the term “AUCτ” refers to the area under the serum concentration versus time curve over the dosing interval. As used herein, the term “Rac” refers to the accumulation ratio of grapiprant in the serum, which is calculated as a measure of drug accumulation at steady state compared to Day 1. Rac for the 14 day oral administration described herein is calculated using the equation: Rac=(Day 14 AUCτ/Day 1 AUCτ). Rac for the 17 day oral administration described herein is calculated using the equation: Rac=(Day 17 AUCτ/Day 1 AUCτ). Day 17 is used as steady state in the elderly group of subjects, which is Day 14 of the multiple dosing period for these subjects.
As used herein, the terms “cohort 1”, “cohort 2”, and “cohort 3” refer to studies where grapiprant tablets are administered at dosage levels of 50 mg, 150 mg, and 300 mg, respectively, in healthy adult subjects with a 14 day oral administration regimen as follows: one dose in the morning in a fasting state on day 1; twice daily (BID, approximately every 12 hours) on days 2 through 13: one dose in a fasting state in the morning, and one dose in the evening on an empty stomach; and one dose in the morning in a fasting state on day 14.
As used herein, the term “cohort 5” and/or “cohort 6” refers to a study where grapiprant tablets are administered at a dosage level of 250 mg in elderly subjects with minor renal impairment with a 17 day oral administration regimen as follows: one dose in the morning in a fasting state on day 1; twice daily (BID, approximately every 12 hours) on days 4 through 16: one dose in a fasting state in the morning, and one dose in the evening on an empty stomach; and one dose in the morning in a fasting state on day 17.
Dosing and Duration: In Cohorts 1-3, study medication was administered once daily in the morning on Days 1 and 14, and twice daily (BID, approximately every 12 hours) on Days 2 through 13. In Cohorts 5 and 6, study medication was administered once daily in the morning on Day 1, BID on Days […] through 16, and once in the morning on Day 17. In all cohorts dosing was to be in the fasting state for the morning dose and on an “empty stomach” for the evening dose.
Pharmacokinetic Evaluations: Serial blood samples for serum PK evaluations of grapiprant began prior to dosing on Day 1 and continued until 48 hours following Day 14 dosing (Cohorts 1-3) or until 24 hours following Day 17 dosing (Cohorts 5 and 6). […]

[1] = 50 mg, 50 mg BID tablets, Day 1, healthy adults
[2] = 50 mg, 50 mg BID tablets, Day 14, healthy adults
[3] = 150 mg, 150 mg BID tablets, Day 1, healthy adults
[4] = 150 mg, 150 mg BID tablets, Day 14, healthy adults
[5] = 250 mg, 250 mg BID tablets, Day 1, elderly with mild renal impairment
[6] = 250 mg, 250 mg BID tablets, Day 17, elderly with mild renal impairment
[7] = 300 mg, 300 mg BID tablets, Day 1, healthy adults
[8] = 300 mg, 300 mg BID tablets, Day 14, healthy adults

With `CCc1nc2c(C)nc(C)cc2n1-c1ccc(CCNC(=O)NS(=O)(=O)c2ccc(C)cc2)cc1` [Grapiprant, N-((4-(2-ethyl-4,6-dimethyl-1H-imidazo[4,5-c]pyridin-1-yl)phenethyl)carbamoyl)-4-methylbenzenesulfonamide] as the molecule, how does the “Rac (Day 14/Day 1)” value (50 mg BID tablets, Day 14 AUCT/Day 1 AUCT, healthy adults) read?
Its value is 1.13.

And the “Rac (Day 14/Day 1)” value (150 mg BID tablets, Day 14 AUCT/Day 1 AUCT, healthy adults)?
Its value is 1.20.

And the “Rac (Day 14/Day 1)” value (250 mg BID tablets, Day 17 AUCT/Day 1 AUCT, elderly with mild renal impairment)?
Its value is 1.54.

And the “mean exposure compared with the 300 mg BID healthy adult group” value (250 mg BID, elderly subjects with mild renal impairment)?
Its value is “slightly greater”.

And the “Rac (Day 14/Day 1)” value (300 mg BID tablets, Day 14 AUCT/Day 1 AUCT, healthy adults)?
Its value is 1.33.

And the “increase of mean systemic exposure (AUC and Cmax) with dose” value (between 50 and 150 mg BID, tablets, healthy adults)?
The value was “approximately dose proportional”.

What about the “increase of mean exposures” value (dose increased 2-fold from 150 mg BID to 300 mg BID, healthy adults) of the same molecule?
Its value is “approximately 3 fold”.

What about the “increase of mean systemic exposure (AUC and Cmax) with dose” value (dose increased from 150 mg BID to 300 mg BID, healthy adults) of the same molecule?
Its value is “greater than dose proportional increase”.

And the half-life (50 mg BID tablets, Day 14, healthy adults)?
The half-life was 6.47 h.

What about the half-life (150 mg BID tablets, Day 14, healthy adults) of the same molecule?
The half-life was 9.71 h.

And the half-life (250 mg BID tablets, Day 1, elderly with mild renal impairment)?
Its half-life is 8.63 h.

What about the half-life (300 mg BID tablets, Day 14, healthy adults) of the same molecule?
Its half-life is 8.76 h.

And the Cmax (50 mg, 50 mg BID tablets, Day 1 (n = 9), healthy adults)?
Its Cmax is 578 ng/mL.

And the AUC(0-t) [1]?
Its AUC(0-t) is 3150 ng·h/mL.

What about the Tmax [1] of the same molecule?
The Tmax was 1.5 h.

And the Cmax (50 mg, 50 mg BID tablets, Day 14 (n = 8), healthy adults)?
The Cmax was 611 ng/mL.

What about the AUC(0-t) [2] of the same molecule?
Its AUC(0-t) is 3370 ng·h/mL.

What about the Tmax [2] of the same molecule?
Its Tmax is 1.25 h.

What about the Cmax (150 mg, 150 mg BID tablets, Day 1 (n = 9), healthy adults) of the same molecule?
Its Cmax is 2150 ng/mL.

And the AUC(0-t) [3]?
Its AUC(0-t) is 8970 ng·h/mL.

What about the Tmax [3] of the same molecule?
The Tmax was 1.5 h.

What about the Cmax (150 mg, 150 mg BID tablets, Day 14 (n = 9), healthy adults) of the same molecule?
The Cmax was 2670 ng/mL.

What about the AUC(0-t) [4] of the same molecule?
The AUC(0-t) was 10300 ng·h/mL.

And the Tmax [4]?
The Tmax was 1.5 h.

What about the Cmax (250 mg, 250 mg BID tablets, Day 1 (n = 15), elderly with mild renal impairment) of the same molecule?
Its Cmax is 10300 ng/mL.

And the AUC(0-t) [5]?
The AUC(0-t) was 30100 ng·h/mL.

What about the Tmax [5] of the same molecule?
Its Tmax is 1 h.

What about the Cmax (250 mg, 250 mg BID tablets, Day 17 (n = 14), elderly with mild renal impairment) of the same molecule?
Its Cmax is 12300 ng/mL.

What about the AUC(0-t) [6] of the same molecule?
Its AUC(0-t) is 40200 ng·h/mL.

And the Tmax [6]?
The Tmax was 1 h.

And the Cmax (300 mg, 300 mg BID tablets, Day 1 (n = 9), healthy adults)?
Its Cmax is 8240 ng/mL.

What about the AUC(0-t) [7] of the same molecule?
The AUC(0-t) was 24900 ng·h/mL.

And the Tmax [7]?
Its Tmax is 1.5 h.

What about the Cmax (300 mg, 300 mg BID tablets, Day 14 (n = 9), healthy adults) of the same molecule?
The Cmax was 10400 ng/mL.

And the AUC(0-t) [8]?
Its AUC(0-t) is 32300 ng·h/mL.

And the Tmax [8]?
Its Tmax is 1 h.
